The target of the assay is T1, human GR (Homo sapiens, UniProt P04150).
T1 construct: naturally expresses the human GR; endogenous in cells
T1 sequence (P04150 1-777): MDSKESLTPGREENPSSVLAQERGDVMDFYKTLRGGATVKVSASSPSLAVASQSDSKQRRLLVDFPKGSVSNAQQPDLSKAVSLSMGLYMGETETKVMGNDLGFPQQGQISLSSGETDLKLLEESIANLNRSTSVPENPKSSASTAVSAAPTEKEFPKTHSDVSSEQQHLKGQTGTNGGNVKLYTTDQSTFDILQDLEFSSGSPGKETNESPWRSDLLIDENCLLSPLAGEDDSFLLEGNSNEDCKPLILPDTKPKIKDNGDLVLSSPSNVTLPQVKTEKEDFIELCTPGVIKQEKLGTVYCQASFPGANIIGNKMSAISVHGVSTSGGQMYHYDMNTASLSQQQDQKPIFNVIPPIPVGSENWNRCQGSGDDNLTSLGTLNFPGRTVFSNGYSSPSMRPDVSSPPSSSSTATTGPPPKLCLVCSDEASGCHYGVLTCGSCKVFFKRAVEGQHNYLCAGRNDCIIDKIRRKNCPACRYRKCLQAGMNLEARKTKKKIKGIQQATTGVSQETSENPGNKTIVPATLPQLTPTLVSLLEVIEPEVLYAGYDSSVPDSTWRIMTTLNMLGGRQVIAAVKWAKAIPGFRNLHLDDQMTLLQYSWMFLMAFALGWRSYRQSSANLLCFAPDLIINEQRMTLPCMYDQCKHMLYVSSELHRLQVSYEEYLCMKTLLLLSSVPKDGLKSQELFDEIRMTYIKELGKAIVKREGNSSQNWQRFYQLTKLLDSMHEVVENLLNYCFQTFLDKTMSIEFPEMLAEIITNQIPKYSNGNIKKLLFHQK
As to the kind of experiment: Trans-activation modulation of glucocorticoid receptor (GRAMMER), MMTV-LUC reporter in A549 cells. The class given is cell-based. As to conditions: for Emax: read-out: Transactivation A549 Cells Grammer Emax (%); for pEC50: IP = inflection point, read-out: Transactivation A549 Cells Grammer IP. An excerpt: Trans-Activation Modulation of Glucocorticoid Receptor (GRAMMER)
This assay assesses the ability of test compounds to control transcription from the MMTV-LUC reporter gene in lung adenocarcinoma A549 cells or HeLa cells, a human […] cell line that naturally expresses the human GR. The assay measures induction of a modified MMTV LTR/promoter linked to the LUC reporter gene.
The routine transient assay consists of plating 7,000-25,000 cells/well of a white, clear-bottom 96-well plate. Alternatively, 384-well plates can be used at a cell concentration of 10,000/well. The media that the cells are plated in is “exponential growth medium” which consists of phenol red-free RPMI1640 containing 10% FBS, 4 mM L-glutamine, 20 mM HEPES, 10 ug/mL human insulin, and 20 ug/mL gentamicin. Incubator conditions are 37° C. and 5% C02. The transfection is done in batch mode. The cells are trypsinized and counted to the right cell number in the proper amount of fresh media. It is then gently mixed with the FuGene6/DNA 25 mix and plated onto the 96 or 384-well plate, all the wells receive 100 uL or 40 uL, respectively, of medium+lipid/DNA complex then incubated 37° C. overnight. The transfection cocktail consists of serum-free OptiMEM, FuGene6 reagent and DNA. The manufacturer's (Roche Biochemical) protocol for cocktail setup is as follows: The lipid to DNA ratio is approximately 2.5:1 and the incubation time is 20 min at room temperature. Sixteen to 24 h after transfection, the cells are treated with dexamethasone to a final concentration of 10 nM as well as the compound of interest, such that final DMSO (vehicle) concentration is equal to or less than 1%. Each plate also contains samples that are treated with 10 nM dexamethasone alone, which is used as the 100% activity control. The cells are exposed to the compounds for 24 h. After 24 h, the cells are lysed by a Promega cell culture lysis buffer for approximately 30 min and then the luciferase activity in the extracts is assayed in the 96-well format luminometer. In 384 well format, Steady-Glo (Promega) or Steady-Lite (PerkinElmer) can be used by adding an equal volume of reagent to the media present in each well. Activity induced by 10 nM dexamethasone alone is set at 100% activity. Antagonist activity is calculated by determining the decrease in dexamethasone-induced activity in response to compound treatment relative to samples that were treated with dexamethasone alone. Results are expressed as % inhibition of 10 nM dexamethasone activity or as fold of 10 nM dexamethasone activity. This transactivation assay can be performed in an agonist and antagonist mode to identify these different activities.
Activity of test compounds is calculated as the Emax relative to the activity obtained with 300 nM dexamethasone. […] The exemplified tissue selective glucocorticoid receptor modulators of the present invention display agonist activity in this assay of greater than 5% and less than 100%, and maximal transactivation activity less then maximal transrepression activity. The action of compounds is also tested in an antagonist mode (Anti-GRAMMER) in which the cells are treated with medium containing an agonist such as 10 nM DEX and the ability of agents to inhibit the activation by an agonist is measured.

Where [1] appears, read: A549 cells, Emax relative to the activity obtained with 300 nM dexamethasone.
[2] abbreviates: A549, A549 cells, Emax relative to the activity obtained with 300 nM dexamethasone.

SMILES strings stand for the structures. pEC50: −log10 of the molar value. Like-named read-outs stand apart in the source and are kept apart here.

Consider 16 molecules from patent US20120214847A1, “2-[1-PHENYL-5-HYDROXY-4a-SUBSTITUTED-HEXAHYDROCYCLOPENTA[F]INDAZOL-5-YL]ETHYL PHENYL DERIVATIVES AS GLUCOCORTICOID RECEPTOR LIGANDS” (Merck Sharp & Dohme Corp., priority 2009, published 2012).

The Emax is the size of the effect at its maximum, as opposed to the concentration needed. In the case of `CC[C@]12Cc3cnn(-c4ccc(F)cc4)c3C=C1CC[C@@]2(O)CCc1nccc(OC)c1C(F)C(N)=O` (stereo partly drawn) [Example 65, 2-(2-{2-[(4aS,5R)-4a-Ethyl-1-(4-fluorophenyl)-5-hydroxy-1,4,4a,5,6,7-hexahydrocyclopenta[f]indazol-5-yl]ethyl}-4-methoxypyridin-3-yl)-2-fluoroacetamide], the Emax under setting [1] came out at 34%. Also, the pEC50 (A549 cells) is 6.76.
Regarding `O=C(NCCO)c1ccccc1CC[C@]1(O)CCC2=Cc3c(cnn3-c3ccc(F)cc3)C[C@@]21C1CC1` [Example 50, 2-{2-[(4aR,5R)-4a-Cyclopropyl-1-(4-fluorophenyl)-5-hydroxy-1,4,4a,5,6,7-hexahydrocyclopenta[f]indazol-5-yl]ethyl}-N-(2-hydroxyethyl)benzamide], the Emax under setting [2] turned out to be 57%. For the same molecule, the pEC50 (A549 cells) is 7.92.
Taken in the same sequence, the figures for `CC[C@]12Cc3cnn(-c4ccc(F)cc4)c3C=C1CC[C@@]2(O)CC(O)c1cc(C#N)ccn1` (stereo partly drawn) [Example 72, 2-{2-[(4aS,5R)-4a-Ethyl-1-(4-fluorophenyl)-5-hydroxy-1,4,4a,5,6,7-hexahydrocyclopenta[f]indazol-5-yl]-1-hydroxyethyl}pyridine-4-carbonitrile] were 13% and 6.73.
Regarding `CC(C)(CO)NC(=O)c1ccccc1CC[C@]1(O)CCC2=Cc3c(cnn3-c3ccc(F)cc3)C[C@@]21C1CC1` [Example 45, 2-{2-[(4aR,5R)-4a-Cyclopropyl-1-(4-fluorophenyl)-5-hydroxy-1,4,4a,5,6,7-hexahydrocyclopenta[f]indazol-5-yl]ethyl}-N-(1-hydroxy-2-methylpropan-2-yl)benzamide], the Emax under setting [2] was 39%. Also, the pEC50 (A549 cells) is 7.66.
On to `CC[C@]12Cc3cnn(-c4ccc(F)cc4)c3C=C1CC[C@@]2(O)CC(O)c1ccc(F)cn1` (single isomer, unassigned) [Example 69a], for which the Emax under setting [2] is 33%. In addition, the pEC50 (A549 cells) was 6.77.
As to `N#Cc1cccnc1CC[C@]1(O)CCC2=Cc3c(cnn3-c3ccc(F)cc3)C[C@@]21C1CC1` [Example 31, 2-{2-[(4aR,5R)-4a-Cyclopropyl-1-(4-fluorophenyl)-5-hydroxy-1,4,4a,5,6,7-hexahydrocyclopenta[f]indazol-5-yl]ethyl}pyridine-3-carbonitrile], the Emax under setting [2] was 24%. Also, the pEC50 (A549 cells) is 8.05.
Consider `COc1cccc(CC[C@]2(O)CCC3=Cc4c(cnn4-c4ccc(F)cc4)C[C@@]32C2CC2)c1C(N)=O` [Example 38, 2-{2-[(4aR,5R)-4a-Cyclopropyl-1-(4-fluorophenyl)-5-hydroxy-1,4,4a,5,6,7-hexahydrocyclopenta[f]indazol-5-yl]ethyl}-6-methoxybenzamide], for which the Emax under setting [2] was found to be 11%. Further, the pEC50 (A549 cells) was 8.00.
With `CC[C@]12Cc3cnn(-c4ccc(F)cc4)c3C=C1CC[C@@]2(O)CC(O)c1c(F)ccnc1Cl` (stereo partly drawn) [Example 74, (4aS,5R)-5-[2-(2-Chloro-4-fluoropyridin-3-yl)-2-hydroxyethyl]-4a-ethyl-1-(4-fluorophenyl)-1,4,4a,5,6,7-hexahydrocyclopenta[f]indazol-5-ol], under setting [2], the Emax was determined as 41%. The pEC50 (A549 cells) is 7.19.
Regarding `CC[C@]12Cc3cnn(-c4ccc(F)cc4)c3C=C1CC[C@@]2(O)CCc1ccccc1C(O)C(N)=O` (stereo partly drawn) [Example 26, 2-(2-{2-[(4aS,5R)-4a-Ethyl-1-(4-fluorophenyl)-5-hydroxy-1,4,4a,5,6,7-hexahydrocyclopenta[f]indazol-5-yl]ethyl}phenyl)-2-hydroxyacetamide], under setting [1], the “Transactivation A549 Cells Grammer Emax (%)” value came out at 58%. Besides, the pEC50 (A549 cells) is 6.79.
In the case of `CC[C@]12Cc3cnn(-c4ccc(F)cc4)c3C=C1CC[C@@]2(O)CCc1ccc(F)cn1` [Example 19, (4aS,5R)-4a-Ethyl-1-(4-fluorophenyl)-5-[2-(5-fluoropyridin-2-yl)ethyl]-1,4,4a,5,6,7-hexahydrocyclopenta[f]indazol-5-ol], the Emax under setting [2] came out at 18%. Besides, the pEC50 (A549 cells) is 6.81.
In the case of `NC(=O)c1ccccc1CC[C@]1(O)CCC2=Cc3c(cnn3-c3cccc(F)c3)C[C@@]21C1CC1` [Example 7, 2-{2-[(4aR,5R)-4a-Cyclopropyl-1-(3-fluorophenyl)-5-hydroxy-1,4,4a,5,6,7-hexahydrocyclopenta[f]indazol-5-yl]ethyl}benzamide], the Emax under setting [2] was determined as 7%. Further, the pEC50 (A549 cells) was 6.84.
As to `NC(=O)CNC(=O)c1cc(F)cnc1CC[C@]1(O)CCC2=Cc3c(cnn3-c3ccc(F)cc3)C[C@@]21C1CC1` [Example 44, N-(2-Amino-2-oxoethyl)-2-{2-[(4aR,5R)-4a-cyclopropyl-1-(4-fluorophenyl)-5-hydroxy-1,4,4a,5,6,7-hexahydrocyclopenta[f]indazol-5-yl]ethyl}-5-fluoropyridine-3-carboxamide], under setting [2], the Emax was 39%. Moreover, under “A549 cells”, the pEC50 was 6.81.
Taken in the same sequence, the figures for `CS(=O)(=O)c1ccccc1CC[C@]1(O)CCC2=Cc3c(cnn3-c3ccc(F)cc3)C[C@@]21C1CC1` [Example 58, (4aR,5R)-4a-Cyclopropyl-1-(4-fluorophenyl)-5-{2-[2-(methylsulfonyl)phenyl]ethyl}-1,4,4a,5,6,7-hexahydrocyclopenta[f]indazol-5-ol] were 11% and 8.05.
For the molecule `CC[C@]12Cc3cnn(-c4ccc(F)cc4)c3C=C1CC[C@@]2(O)CC(O)c1cncc(F)c1` (stereo partly drawn) [Example 73, (4aS,5R)-4a-Ethyl-1-(4-fluorophenyl)-5-[2-(5-fluoropyridin-3-yl)-2-hydroxyethyl]-1,4,4a,5,6,7-hexahydrocyclopenta[f]indazol-5-ol], the Emax under setting [2] turned out to be 34%. The pEC50 (A549 cells) was 7.00.
In the same order, the values of `NC(=O)CNC(=O)c1cccnc1CC[C@]1(O)CCC2=Cc3c(cnn3-c3ccc(F)cc3)C[C@@]21C1CC1` [Example 43, N-(2-Amino-2-oxoethyl)-2-{2-[(4aR,5R)-4a-cyclopropyl-1-(4-fluorophenyl)-5-hydroxy-1,4,4a,5,6,7-hexahydrocyclopenta[f]indazol-5-yl]ethyl}pyridine-3-carboxamide] are 47% and 6.59.
In the case of `N#Cc1c(F)cccc1CC[C@]1(O)CCC2=Cc3c(cnn3-c3ccccc3)C[C@@]21C1CC1` [Example 28, 2-{2-[(4aR,5R)-4a-Cyclopropyl-5-hydroxy-1-phenyl-1,4,4a,5,6,7-hexahydrocyclopenta[f]indazol-5-yl]ethyl}-6-fluorobenzonitrile], the Emax under setting [2] was 8%. Also, where the note is “A549 cells”, the pEC50 was 7.49.
